Where only a bound is given, the exact number is not on record here.

Data on 22 compounds can be found in US11028079B2 (ConverGene LLC, priority 2015, dated 2021).

The target of this experiment is T1, BRD4 bromodomains (Homo sapiens, UniProt O60885).
T1 construct: fused on or other part: T7 phage capsid protein (phage-display fusion; the phage DNA is read out by qPCR)
The experiment in a line: BROMOscan bromodomain competition binding assay (DiscoveRx). The settings on record: Kd from 11 compound concentrations ranging from 0 to 10 μM, read-out: BROMOscan Relative Activity. The method, then: Bromodomain assays were conducted to measure interactions between certain compounds and bromodomains.
The assays were conducted according to BROMOscan protocol from Discover Rx. Briefly, BRD4 bromodomains expressed as a fusion capsid protein of T7 phage were bound to acetylated peptide ligand on a solid phase and competition bindings were performed. T7 phage strains displaying bromodomains were grown in parallel in 24-well blocks in an E. coli host derived from the BL21 strain. E. coli were grown to log-phase and infected with T7 phage from a frozen stock (multiplicity of infection=0.4) and incubated with shaking at 32° C. until lysis (90-150 minutes). The lysates were centrifuged (5,000×g) and filtered (0.2 μm) to remove cell debris. […] The liganded beads were blocked with excess biotin and washed with blocking buffer (SeaBlock (Pierce), 1% BSA, 0.05% Tween 20, 1 mM DTT) to remove unbound ligand and to reduce non-specific phage binding. […] Test compounds were prepared as 1000× stocks in 100% DMSO and subsequently diluted 1:10 in monoethylene glycol (MEG) to create stocks at 100× the screening concentration (resulting stock solution is 10% DMSO/90% MEG). The compounds were then diluted directly into the assays such that the final concentration of DMSO and MEG were 0.1% and 0.9%, respectively. All reactions were performed in polystyrene 96-well plates in a final volume of 0.135 ml. […] The bromodomain concentration in the eluates was measured by qPCR. Data was collected at 11 compound concentrations ranging from 0 to 10 μM. Kd values were then derived from a standard dose-response curve generated with Hill equation (Hill Slope was set to ˜1) and a non-linear least square fit with the Levenberg-Marquardt algorithm. Response=Background+Signal−Background/1+(Kd Hill Slope/Dose Hill Slope)
Regarding `Cc1cc(NC(=O)c2nc(NCc3cccc(Cl)c3)c3cc(-c4c(C)noc4C)ccc3n2)ccn1` [Example 218, 4-((3-chlorobenzyl)amino)-6-(3,5-dimethylisoxazol-4-yl)-N-(2-methylpyridin-4-yl)quinazoline-2-carboxamide], the Kd is 500 to 5000 nM.

As to `CN(C)CCN1CCN(c2nc(NCc3cccc(Cl)c3)c3cc(-c4ccnc(O)c4)ccc3n2)CC1` [Example 96, 4-(4-((3-chlorobenzyl)amino)-2-(4-(2-(dimethylamino)ethyl)piperazin-1-yl)quinazolin-6-yl)pyridin-2-ol], the Kd was above 5000 nM.

Take `CN(C)CCCN1CCN(c2nc(NCc3cccc(Cl)c3)c3cc(-c4ccc(=O)n(C)c4)ccc3n2)CC1` [Example 123, 5-(4-((3-chlorobenzyl)amino)-2-(4-(3-(dimethylamino)propyl)piperazin-1-yl)quinazolin-6-yl)-1-methylpyridin-2(1H)-one]: the Kd is below 500 nM.

On to `Cc1noc(C)c1-c1ccc2nc(N3CCN(C[C@H](C)O)CC3)nc(N3CCOC[C@@H]3c3ccccc3)c2c1` [Example 308, (S)-1-(4-(6-(3,5-dimethylisoxazol-4-yl)-4-((S)-3-phenylmorpholino)quinazolin-2-yl)piperazin-1-yl)propan-2-ol], for which the Kd is below 500 nM.

Consider `Cc1noc(C)c1-c1ccc2nc(N3CCN(CCN(C)C)CC3)nc(NC(C)c3cccs3)c2c1` (stereo not shown) [Example 89, 2-(4-(2-(dimethylamino)ethyl)piperazin-1-yl)-6-(3,5-dimethylisoxazol-4-yl)-N-(1-(thiophen-2-yl)ethyl)quinazolin-4-amine], for which the Kd is below 500 nM.

On to `Cc1noc(C)c1-c1ccc2nc(C(=O)NCc3ccncc3F)nc(NCc3cccc(Cl)c3)c2c1` [Example 215, 4-((3-chlorobenzyl)amino)-6-(3,5-dimethylisoxazol-4-yl)-N-((3-fluoropyridin-4-yl)methyl)quinazoline-2-carboxamide], for which the Kd was below 500 nM.

In the case of `Cc1nn(C)cc1CNC(=O)c1nc(NCc2cccc(Cl)c2)c2cc(-c3c(C)noc3C)ccc2n1` [Example 205, 4-((3-chlorobenzyl)amino)-N-((1,3-dimethyl-1H-pyrazol-4-yl)methyl)-6-(3,5-dimethylisoxazol-4-yl)quinazoline-2-carboxamide], the Kd was below 500 nM.

Regarding `Cc1noc(C)c1-c1ccc2nc(N3CCC(S(C)(=O)=O)CC3)nc(NCc3cncc(Cl)c3)c2c1` [Example 154, N-((5-chloropyridin-3-yl)methyl)-6-(3,5-dimethylisoxazol-4-yl)-2-(4-(methylsulfonyl)piperidin-1-yl)quinazolin-4-amine], the Kd was below 500 nM.

On to `Cc1noc(C)c1-c1ccc2nc(C(=O)N3CCc4cnn(C)c4C3)nc(N3CCOC[C@@H]3c3ccccc3)c2c1` [Example 317, (S)-(6-(3,5-dimethylisoxazol-4-yl)-4-(3-phenylmorpholino)quinazolin-2-yl)(1-methyl-1,4,5,7-tetrahydro-6H-pyrazolo[3,4-c]pyridin-6-yl)methanone], for which the Kd was in the range of 500 to 5000 nM.

Turning to `Cc1nocc1-c1ccc2nc(N3CCN(CCN(C)C)CC3)nc(NCc3cccc(Cl)c3)c2c1` [Example 93, N-(3-chlorobenzyl)-2-(4-(2-(dimethylamino)ethyl)piperazin-1-yl)-6-(3-methylisoxazol-4-yl)quinazolin-4-amine], the Kd was below 500 nM.

As for `CNC(=O)Cn1cc(-c2nc(N3CCOC[C@@H]3c3ccccc3)c3cc(-c4c(C)noc4C)ccc3n2)cn1` [Example 272, (S)-2-(4-(6-(3,5-dimethylisoxazol-4-yl)-4-(3-phenylmorpholino)quinazolin-2-yl)-1H-pyrazol-1-yl)-N-methylacetamide], the Kd is below 500 nM.

`Cc1noc(C)c1-c1ccc2nc(N3CCN(C(=O)CN)CC3)nc(NCc3cccc(Cl)c3)c2c1` [Example 55, 2-amino-1-(4-(4-((3-chlorobenzyl)amino)-6-(3,5-dimethylisoxazol-4-yl)quinazolin-2-yl)piperazin-1-yl)ethanone]: the Kd was below 500 nM.

Regarding `Cc1noc(C)c1-c1ccc2nc(N3CCC4(CCC(=O)N4C)CC3)nc(N3CCOC[C@@H]3c3ccccc3)c2c1` [Example 330, (S)-8-(6-(3,5-dimethylisoxazol-4-yl)-4-(3-phenylmorpholino)quinazolin-2-yl)-1-methyl-1,8-diazaspiro[4.5]decan-2-one], the Kd is below 500 nM.

Turning to `Cc1noc(C)c1-c1ccc2nc(C(=O)N3CCc4[nH]ncc4C3)nc(NCc3cccc(Cl)c3)c2c1` [Example 287, (4-((3-chlorobenzyl)amino)-6-(3,5-dimethylisoxazol-4-yl)quinazolin-2-yl)(1,4,6,7-tetrahydro-5H-pyrazolo[4,3-c]pyridin-5-yl)methanone], the Kd was below 500 nM.

For the compound `Cc1noc(C)c1-c1ccc2nc(C(=O)N3CCc4[nH]ncc4C3)nc(N3CCOC[C@@H]3c3ccccc3)c2c1` [Example 285, (S)-(6-(3,5-dimethylisoxazol-4-yl)-4-(3-phenylmorpholino)quinazolin-2-yl)(1,4,6,7-tetrahydro-5H-pyrazolo[4,3-c]pyridin-5-yl)methanone], the Kd fell in the range of 500 to 5000 nM.

As for `Cc1noc(C)c1-c1ccc2nc(C(=O)NCc3cncc(Cl)c3)nc(NCc3cccc(Cl)c3)c2c1` [Example 191, 4-((3-chlorobenzyl)amino)-N-((5-chloropyridin-3-yl)methyl)-6-(3,5-dimethylisoxazol-4-yl)quinazoline-2-carboxamide], the Kd was below 500 nM.

Turning to `Cc1nc(CNC(=O)c2nc(NCc3cccc(Cl)c3)c3cc(-c4c(C)noc4C)ccc3n2)cs1` [Example 196, 4-((3-chlorobenzyl)amino)-6-(3,5-dimethylisoxazol-4-yl)-N-((2-methylthiazol-4-yl)methyl)quinazoline-2-carboxamide], the Kd was below 500 nM.

As to `Cc1noc(C)c1-c1ccc2nc(-c3cnn(CCO)c3)nc(NCc3cncc(Cl)c3)c2c1` [Example 144, 2-(4-(4-(((5-chloropyridin-3-yl)methyl)amino)-6-(3,5-dimethylisoxazol-4-yl)quinazolin-2-yl)-1H-pyrazol-1-yl)ethanol], the Kd was below 500 nM.

Take `Cc1noc(C)c1-c1ccc2nc(N3CCN(CC(C)(C)O)CC3)nc(N3CCOC[C@@H]3c3ccccc3)c2c1` [Example 295, (S)-1-(4-(6-(3,5-dimethylisoxazol-4-yl)-4-(3-phenylmorpholino)quinazolin-2-yl)piperazin-1-yl)-2-methylpropan-2-ol]: the Kd is below 500 nM.

On to `Cc1ccncc1CNC(=O)c1nc(NCc2cccc(Cl)c2)c2cc(-c3c(C)noc3C)ccc2n1` [Example 187, 4-((3-chlorobenzyl)amino)-6-(3,5-dimethylisoxazol-4-yl)-N-((4-methylpyridin-3-yl)methyl)quinazoline-2-carboxamide], for which the Kd is below 500 nM.

In the case of `Cc1noc(C)c1-c1ccc2nc(-c3cnn(CC(=O)N(C)C)c3)nc(N3CCOC[C@@H]3c3ccccc3)c2c1` [Example 301, (S)-2-(4-(6-(3,5-dimethylisoxazol-4-yl)-4-(3-phenylmorpholino)quinazolin-2-yl)-1H-pyrazol-1-yl)-N,N-dimethylacetamide], the Kd is below 500 nM.

Take `Cc1noc(C)c1-c1ccc2nc(N3CCN(CCN(C)C)CC3)nc(N3CC(Cc4ccccc4)C3)c2c1` [Example 161, 2-(4-(4-(3-benzylazetidin-1-yl)-6-(3,5-dimethylisoxazol-4-yl)quinazolin-2-yl)piperazin-1-yl)-N,N-dimethylethanamine]: the Kd was in the range of 500 to 5000 nM.
